This is an account of results in ChEMBL document CHEMBL1154377, “Evaluation of basic, heterocyclic ring systems as templates for use as potassium competitive acid blockers (pCABs)” (Bioorg Med Chem Lett, 2009).

Activity calls are given as the source filed them. The calls are words filed in the database; no cut-off is given here.

The nature of data set [1]: Chromatographic hydrophobicity index at pH 7.4 by fast gradient HPLC. It counts as physicochemical. As to conditions: buffer.
Data set [2] can be described thus: Inhibition of H+/K+ ATPase in parietal cells assessed as inhibition of pentagastrin-stimulated [14C]aminopyrine accumulation at 50 µM.
A short description of data set [3]: Inhibition of H+/K+ ATPase at pH 7.4.
A short description of data set [4]: Dissociation constant, pKa of the compound. The settings on record: read-out: pKa. It counts as physicochemical.
The target of data set [5] is T1, Cytochrome P450 3A4 (Homo sapiens, UniProt P08684). The experiment in a line: Inhibition of CYP3A4 using 7-benzyloxyquinoline substrate. It counts as ADME.
Data set [6] deals with T2, Cytochrome P450 1A2 (Homo sapiens, UniProt P05177).
T2 sequence (P05177 whole entry): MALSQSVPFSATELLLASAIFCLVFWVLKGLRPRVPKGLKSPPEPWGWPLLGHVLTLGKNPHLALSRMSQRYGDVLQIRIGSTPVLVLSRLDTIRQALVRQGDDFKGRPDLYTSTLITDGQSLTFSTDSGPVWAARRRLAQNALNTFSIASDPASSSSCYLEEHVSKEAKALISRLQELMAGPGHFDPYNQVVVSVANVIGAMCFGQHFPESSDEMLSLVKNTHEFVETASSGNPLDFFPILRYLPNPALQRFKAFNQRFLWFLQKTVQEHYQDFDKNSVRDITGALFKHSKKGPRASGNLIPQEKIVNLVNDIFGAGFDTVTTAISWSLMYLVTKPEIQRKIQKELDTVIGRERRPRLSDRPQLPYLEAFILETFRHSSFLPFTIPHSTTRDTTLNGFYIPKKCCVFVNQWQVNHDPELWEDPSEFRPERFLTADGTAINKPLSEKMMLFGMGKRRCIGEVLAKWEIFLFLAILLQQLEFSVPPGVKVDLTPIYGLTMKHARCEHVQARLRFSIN
Briefly: Inhibition of CYP1A2. It counts as ADME.

Data set [7] can be described thus: Inhibition of H+/K+ ATPase in parietal cells assessed as inhibition of histamine-stimulated [14C]aminopyrine accumulation.
The nature of data set [8]: Intrinsic clearance in human liver microsomes. The class given is ADME, Microsome. Background: Liver microsomes are vesicles of endoplasmic reticulum, rich in cytochrome P450 enzymes.
In data set [9] the target is Cytochrome P450 2D6 (Homo sapiens, UniProt P10635). Briefly: Inhibition of CYP2D6. It counts as ADME.
Data set [10] concerns the target T1, Cytochrome P450 3A4. The experiment in a line: Inhibition of CYP3A4 using diethoxyfluorescein substrate. It counts as ADME.
A short description of data set [11]: Intrinsic clearance in rat liver microsomes. It counts as ADME, Microsome.
For data set [12], the target named is Cytochrome P450 2C19 (Homo sapiens, UniProt P33261). Briefly: Inhibition of CYP2C19. The class given is ADME.
In data set [13] the target is Cytochrome P450 2C9 (Homo sapiens, UniProt P11712).
The nature of data set [14]: Intrinsic clearance in dog liver microsomes. It counts as ADME, Canis lupus familiaris, Microsome.
A short description of data set [15]: Inhibition of H+/K+ ATPase in parietal cells assessed as inhibition of pentagastrin-stimulated [14C]aminopyrine accumulation at 50 nM. The class given is cell-based.
The nature of data set [16]: Inhibition of H+/K+ ATPase in parietal cells assessed as inhibition of pentagastrin-stimulated [14C]aminopyrine accumulation at 1 uM. The class given is cell-based.
The target of data set [17] is CYP2D6 (Homo sapiens, UniProt P10635). Briefly: Inhibition of CYP2D6 assessed as ratio of IC50 at 0 mins to IC50 at 10 mins. It counts as ADME. The settings on record: read-out: Ratio IC50.
The target in data set [18] is CYP3A4 (Homo sapiens, UniProt P08684). The experiment in a line: Inhibition of CYP3A4 assessed as ratio of IC50 at 0 mins to IC50 at 10 mins using diethoxyfluorescein substrate. It counts as ADME. The settings on record: probe diethoxyfluorescein; read-out: Ratio IC50.
CYP3A4, sequence (P08684 whole entry): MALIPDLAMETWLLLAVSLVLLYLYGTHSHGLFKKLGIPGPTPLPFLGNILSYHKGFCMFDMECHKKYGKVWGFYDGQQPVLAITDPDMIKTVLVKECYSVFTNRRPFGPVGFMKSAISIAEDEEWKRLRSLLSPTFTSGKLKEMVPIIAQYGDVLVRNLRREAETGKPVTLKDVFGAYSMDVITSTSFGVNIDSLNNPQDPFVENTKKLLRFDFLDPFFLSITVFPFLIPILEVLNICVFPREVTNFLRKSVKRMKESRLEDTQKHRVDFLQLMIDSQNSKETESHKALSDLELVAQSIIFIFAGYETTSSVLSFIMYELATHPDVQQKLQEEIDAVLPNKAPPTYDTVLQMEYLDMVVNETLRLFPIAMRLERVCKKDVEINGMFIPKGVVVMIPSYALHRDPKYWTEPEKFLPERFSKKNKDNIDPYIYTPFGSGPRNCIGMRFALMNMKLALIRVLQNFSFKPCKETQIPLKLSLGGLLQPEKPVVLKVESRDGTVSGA

T1 sequence (P08684 whole entry): as above
Cytochrome P450 2C9, sequence (P11712 whole entry): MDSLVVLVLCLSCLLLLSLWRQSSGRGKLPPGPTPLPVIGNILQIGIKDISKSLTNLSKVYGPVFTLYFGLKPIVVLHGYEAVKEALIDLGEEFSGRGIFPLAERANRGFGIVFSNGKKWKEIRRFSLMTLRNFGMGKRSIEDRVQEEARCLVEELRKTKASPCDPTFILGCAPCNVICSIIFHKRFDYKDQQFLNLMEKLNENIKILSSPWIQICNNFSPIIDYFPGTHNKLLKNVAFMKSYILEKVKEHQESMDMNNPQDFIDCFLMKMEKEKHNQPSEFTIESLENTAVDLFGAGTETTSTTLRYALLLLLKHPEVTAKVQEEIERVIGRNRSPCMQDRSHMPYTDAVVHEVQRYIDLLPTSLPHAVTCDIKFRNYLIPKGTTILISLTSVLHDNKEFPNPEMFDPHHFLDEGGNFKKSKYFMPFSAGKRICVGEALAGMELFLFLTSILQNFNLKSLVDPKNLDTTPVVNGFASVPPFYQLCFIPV
Cytochrome P450 2D6, sequence (P10635 whole entry): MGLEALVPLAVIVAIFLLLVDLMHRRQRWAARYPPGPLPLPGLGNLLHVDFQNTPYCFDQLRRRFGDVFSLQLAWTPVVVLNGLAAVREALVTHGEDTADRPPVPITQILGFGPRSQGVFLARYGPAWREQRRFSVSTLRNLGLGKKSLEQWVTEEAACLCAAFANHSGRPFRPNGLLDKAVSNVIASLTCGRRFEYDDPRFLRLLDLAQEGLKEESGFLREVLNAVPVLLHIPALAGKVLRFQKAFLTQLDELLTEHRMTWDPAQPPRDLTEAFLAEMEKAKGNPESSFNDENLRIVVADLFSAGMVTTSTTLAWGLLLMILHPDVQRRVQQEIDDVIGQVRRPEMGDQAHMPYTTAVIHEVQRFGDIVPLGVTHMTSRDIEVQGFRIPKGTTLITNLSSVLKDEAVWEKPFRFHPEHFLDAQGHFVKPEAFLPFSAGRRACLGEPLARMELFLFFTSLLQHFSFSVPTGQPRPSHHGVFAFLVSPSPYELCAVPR
Cytochrome P450 2C19, sequence (P33261 whole entry): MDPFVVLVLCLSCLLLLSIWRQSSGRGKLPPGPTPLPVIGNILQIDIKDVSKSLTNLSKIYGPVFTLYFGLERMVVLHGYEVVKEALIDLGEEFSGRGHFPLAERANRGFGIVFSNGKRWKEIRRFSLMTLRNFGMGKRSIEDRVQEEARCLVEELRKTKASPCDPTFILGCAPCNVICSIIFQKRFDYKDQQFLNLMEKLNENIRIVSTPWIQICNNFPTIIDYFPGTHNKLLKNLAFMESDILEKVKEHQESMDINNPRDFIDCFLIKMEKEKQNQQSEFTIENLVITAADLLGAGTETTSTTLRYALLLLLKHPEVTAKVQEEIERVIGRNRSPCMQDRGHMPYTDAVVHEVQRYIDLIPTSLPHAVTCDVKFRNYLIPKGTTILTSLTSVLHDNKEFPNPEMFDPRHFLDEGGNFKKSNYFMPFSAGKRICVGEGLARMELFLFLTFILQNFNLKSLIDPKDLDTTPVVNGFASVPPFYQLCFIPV
CYP2D6, sequence (P10635 whole entry): as the sequence (P10635 whole entry) above

As a reminder, the chromatographic logD is lipophilicity estimated from chromatographic retention. High values mean a more lipophilic compound, low ones a more hydrophilic compound. One may read the inhibition as the share of the control response that was lost under treatment. In general, pIC50 refers to −log10 of the IC50, conventionally taken in molar units. The term pKa denotes the negative logarithm of the acid dissociation constant. `Cc1cccc(C)c1CNc1ccnc2c1cc(C)n2C` showed a chromatographic logD in [1] of 3.28. Moreover, the inhibition in data set [2] is 36%. The same compound registered a negative-log IC50 (pIC50) in data set [3] of 4.8. The pKa in data set [4] is 7.42.
As a reminder, the IC50 is the midpoint of a concentration-inhibition curve. For orientation: CLint scaled means the rate of metabolic loss divided by the concentration. Higher therefore signals faster metabolism. As to `Cc1cccc(C)c1CNc1nccc2c1nc(C)n2C`, the IC50 in data set [5] was 21 µM; in data set [6] it was 31 µM; in [7] it was 0.0741 µM; in data set [9], less than 0.1 µM; in data set [10] it was 12 µM; in [12], 27 µM. Also, the IC50 in data set [13] was 68 µM. The chromatographic logD in data set [1] amounted to 2.09. The results for the CLint scaled in [8], in data set [11] and in data set [14] were 3.4 mL/min/kg, 14 mL/min/kg and 6.5 mL/min/kg, respectively. Further, the negative logarithm of the IC50 (pIC50) in [3] is listed as 5.3. In addition, in data set [4], the pKa stood at 7.49.
As to `Cc1cccc(C)c1CNc1nccc2c(C)c[nH]c12`, the inhibition in data set [15] worked out at 92.5%. Further, in data set [3], the pIC50 was 9. Besides, in [4], the pKa came to 8.71.
For the compound `Cc1cccc(C)c1CNc1nccc2c(C)c(C)[nH]c12`, the IC50 in [5] is 9.6 µM; in data set [6], 14 µM; in data set [7], 0.0708 µM; in data set [9], less than 0.1 µM; in data set [10] it was 9 µM; in data set [12] it was 1.8 µM. The IC50 in data set [13] was 33 µM. In data set [1], the chromatographic logD was 2.29. The CLint scaled in [8] came to 5 mL/min/kg; in data set [11] it was 50 mL/min/kg; in [14], 19 mL/min/kg. Besides, the inhibition in [15] was 67.3%. For the same compound, in [3], the negative-log IC50 (pIC50) came to 9.4.
On to `Cc1cccc(C)c1CNc1cccn2c(C)nnc12`, for which the pIC50 result in data set [16] was “inactive”. This compound also yielded a chromatographic logD in data set [1] of 3.5. This compound yielded a pIC50 in [3] of 4.
As for `Cc1[nH]c2c(NCc3ccccc3)nccc2c1C`, the inhibition in [15] was determined as 98.5%. This compound also displayed a pIC50 in [3] of 8.4. Further, the pKa in data set [4] is 8.79.
In the case of `Cc1cccc(C)c1CNc1nccc2c1cc(C)n2C`, the IC50 was 4.3 µM in data set [5]; 41 µM in [6]; less than 0.1 µM in [9]; 3.1 µM in [10]; 6.9 µM in data set [12]; 66 µM in [13]. Further, the chromatographic logD in [1] came to 2.04. Further, the results for the CLint scaled in data set [8], in data set [11] and in [14] were 3.8 mL/min/kg, 28 mL/min/kg and 17 mL/min/kg, respectively. For the same compound, the inhibition in data set [2] came to 22%. Besides, the pIC50 in data set [3] is recorded as 6.8. Besides, the pKa in [4] stood at 9.14.
As for `Cc1c(C)n(C[C@H]2C[C@@H]2C)c2c(OCc3ccc(F)cc3)nncc12`, the IC50 in [5] was 14 µM; in [6] it was 1.2 µM; in [7] it was 0.282 µM; in data set [9], 4.4 µM; in data set [10], 6 µM; in data set [12], 5.1 µM. This compound gave a concentration for half-maximal inhibition (IC50) in [13] of 0.8 µM. The IC50 shift in data set [17] worked out at 0.6; in data set [18], 1.2. In addition, the values for the CLint scaled in data set [8], in data set [11] and in data set [14] were 16 mL/min/kg, 30 mL/min/kg and 38 mL/min/kg, respectively. The same compound had a pIC50 in data set [3] of 6.8.
